Experimental data as given in patent US12129246B1, “Hydroquinazoline derivatives for the treatment of a disease or disorder” (Novartis AG, priority 2023, dated 2024).

Assays:
[1] = biological target: monkey NPR1 (Macaca fascicularis, UniProt A0A7N9DBT9); assay: Cellular cGMP production assay, monkey NPR1 expressing CHO-K1 cells (CisBio HTRF); assay type: cell-based; details: monkey NPR1 CHO-K1 cells; for AC50: cGMP production, 30 min at 37° C., 12-point dose-response from 30 μM, read-out: Monkey NPR1 AC50; for Monkey NPR1 Amax (% of ANP): maximum cGMP production as percentage of the maximum cGMP produced with ANP
Method: (§1) Cellular cGMP is a major second messenger that mediates cell activities and is synthesized by activated NPR1 triggered by binding of the natural ligand ANP. […] The assay was performed according to manufacturer's instructions with minor deviations. […] All compound stocks were diluted in PBS+0.1% BSA at 2-fold the final assay concentration. After addition of 10 μL/well of assay buffer (PBS+0.1% BSA+1 mM IBMX) and 10 μL/well of the compounds in different concentrations (12-point dose-response with 3-fold dilutions from a top concentration of 30 μM), the plate was incubated for 30 min at 37° C. to allow for cGMP production. In parallel, a standard curve using a calibrator (contained in the kit) was generated. The cells were lysed and a mix of cGMP-d2 and anti-cGMP-cryptate was added and incubated for 1 h at room temperature. The readout was performed using an Envision plate reader (PerkinElmer) with an excitation wavelength of 317 nm and an emission wavelength of 665 nm. cGMP concentration (Delta F [° %]) was calculated according to the following formulae: […]

[2] = biological target: T1, human NPR1 (Homo sapiens, UniProt P16066); assay: Cellular cGMP production assay, human NPR1 expressing CHO-K1 cells (CisBio HTRF); assay type: cell-based; details: for AC50: cGMP production, 30 min at 37° C., 12-point dose-response from 30 μM; for Human NPR1 Amax (% of ANP): maximum cGMP production as percentage of the maximum cGMP produced with ANP
T1 construct: host or cells: CHO-K1
T1 sequence (P16066 33-1061): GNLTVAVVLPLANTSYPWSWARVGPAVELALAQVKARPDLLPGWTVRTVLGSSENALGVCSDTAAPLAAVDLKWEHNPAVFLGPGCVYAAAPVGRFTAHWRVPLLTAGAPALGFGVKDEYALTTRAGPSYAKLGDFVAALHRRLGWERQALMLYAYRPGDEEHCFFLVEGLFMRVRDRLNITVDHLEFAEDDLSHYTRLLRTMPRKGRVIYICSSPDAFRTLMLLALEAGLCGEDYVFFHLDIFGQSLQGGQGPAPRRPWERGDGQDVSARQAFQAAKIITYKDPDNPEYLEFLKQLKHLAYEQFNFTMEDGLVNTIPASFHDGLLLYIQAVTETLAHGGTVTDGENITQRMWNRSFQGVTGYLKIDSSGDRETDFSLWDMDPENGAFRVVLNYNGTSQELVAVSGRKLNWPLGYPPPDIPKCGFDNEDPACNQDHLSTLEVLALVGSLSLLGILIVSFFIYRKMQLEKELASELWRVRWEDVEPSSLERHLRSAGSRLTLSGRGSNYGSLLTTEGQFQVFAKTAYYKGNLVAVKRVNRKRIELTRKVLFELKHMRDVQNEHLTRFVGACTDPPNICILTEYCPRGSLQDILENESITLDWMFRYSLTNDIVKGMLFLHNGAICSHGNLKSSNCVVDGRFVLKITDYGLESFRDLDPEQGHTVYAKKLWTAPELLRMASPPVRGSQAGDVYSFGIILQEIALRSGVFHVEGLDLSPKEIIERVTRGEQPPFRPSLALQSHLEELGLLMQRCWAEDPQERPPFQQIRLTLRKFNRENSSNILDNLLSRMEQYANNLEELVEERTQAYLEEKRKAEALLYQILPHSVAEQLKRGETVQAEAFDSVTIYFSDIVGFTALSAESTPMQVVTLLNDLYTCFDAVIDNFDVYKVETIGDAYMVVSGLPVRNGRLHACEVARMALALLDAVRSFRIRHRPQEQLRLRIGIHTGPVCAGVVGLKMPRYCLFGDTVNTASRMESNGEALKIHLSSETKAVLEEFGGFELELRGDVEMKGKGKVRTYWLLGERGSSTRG
Method: as §1

Chain of monkey NPR1 (A0A7N9DBT9 entry or part of it): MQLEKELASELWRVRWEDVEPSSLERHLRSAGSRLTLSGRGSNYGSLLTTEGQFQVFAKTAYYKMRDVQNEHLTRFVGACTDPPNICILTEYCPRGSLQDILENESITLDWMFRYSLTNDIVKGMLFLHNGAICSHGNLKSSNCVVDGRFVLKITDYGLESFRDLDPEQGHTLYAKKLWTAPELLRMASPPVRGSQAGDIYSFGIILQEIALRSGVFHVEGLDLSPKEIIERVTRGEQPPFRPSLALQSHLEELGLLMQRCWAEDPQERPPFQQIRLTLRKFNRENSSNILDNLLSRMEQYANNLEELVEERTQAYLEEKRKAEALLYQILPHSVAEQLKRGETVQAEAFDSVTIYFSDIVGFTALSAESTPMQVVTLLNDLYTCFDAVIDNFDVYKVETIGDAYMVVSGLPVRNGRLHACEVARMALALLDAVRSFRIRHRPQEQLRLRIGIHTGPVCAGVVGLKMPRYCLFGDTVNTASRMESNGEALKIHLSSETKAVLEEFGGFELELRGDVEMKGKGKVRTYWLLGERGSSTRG

Row | SMILES | AC50 [1] [nM] | Monkey NPR1 Amax (% of ANP) [1] | AC50 [2] [nM] | Human NPR1 Amax (% of ANP) [2]
1 | CC[C@@H](Nc1nc2c(c(N[C@@H](CN3CCCC3)c3ccccc3)n1)C[C@H](c1ccccc1)CC2)[C@H]1CC[C@H](C(=O)O)CC1 [Compound 85, (1R,4r)-4-((R)-1-(((R)-6-phenyl-4-(((R)-1-phenyl-2-(pyrrolidin-1-yl)ethyl)amino)-5,6,7,8-tetrahydroquinazolin-2-yl)amino)propyl)cyclohexane-1-carboxylic acid] | 238 | 95.638 % of ANP | 285 | 102.461 % of ANP
2 | CC[C@H]([C@H]1CC[C@H](C(=O)O)CC1)N(C)c1nc2c(c(N[C@@H](CN3CCCC(F)C3)c3cnn(C)c3)n1)C[C@H](c1ccccc1)CC2 (stereo partly drawn) [Compound 156, (1R,4r)-4-((1R)-1-(((6R)-4-(((1R)-2-(3-fluoropiperidin-1-yl)-1-(1-methyl-1H-pyrazol-4-yl)ethyl)amino)-6-phenyl-5,6,7,8-tetrahydroquinazolin-2-yl)(methyl)amino)propyl)cyclohexane-1-carboxylic acid] | 1160 | 105.900 % of ANP | 1300 | 93.013 % of ANP
3 | CC[C@H]([C@H]1CC[C@H](CC(=O)O)CC1)N(C)c1nc2c(c(N[C@@H](CN3CCC[C@H](C)C3)c3cnn(C)c3)n1)C[C@H](c1ccccc1)CC2 [Compound 67, 2-((1R,4r)-4-((R)-1-(methyl((R)-4-(((R)-1-(1-methyl-1H-pyrazol-4-yl)-2-((S)-3-methylpiperidin-1-yl)ethyl)amino)-6-phenyl-5,6,7,8-tetrahydroquinazolin-2-yl)amino)propyl)cyclohexyl)acetic acid] | 155 | 98.233 % of ANP | 229 | 95.228 % of ANP
4 | CC[C@H]([C@H]1CC[C@H](C(=O)O)CC1)N(C)c1nc2c(c(N[C@@H](CN3CCCCC3)c3cnn(CC(F)(F)F)c3)n1)C[C@H](c1ccccc1)CC2 [Compound 167, (1R,4r)-4-((R)-1-(methyl((R)-6-phenyl-4-(((R)-2-(piperidin-1-yl)-1-(1-(2,2,2-trifluoroethyl)-1H-pyrazol-4-yl)ethyl)amino)-5,6,7,8-tetrahydroquinazolin-2-yl)amino)propyl)cyclohexane-1-carboxylic acid] | 1430 | 98.847 % of ANP | 2090 | 112.087 % of ANP
5 | CC[C@H]([C@H]1CC[C@H](C(=O)O)CC1)N(C)c1nc2c(c(N[C@H](c3cnn(C)c3)C(C)(C)N3CCCCC3)n1)C[C@H](c1ccccc1)CC2 [Compound 173, (1R,4r)-4-((R)-1-(methyl((R)-4-(((R)-2-methyl-1-(1-methyl-1H-pyrazol-4-yl)-2-(piperidin-1-yl)propyl)amino)-6-phenyl-5,6,7,8-tetrahydroquinazolin-2-yl)amino)propyl)cyclohexane-1-carboxylic acid] | 2580 | 102.204 % of ANP | 4200 | 102.335 % of ANP
6 | CC[C@H]([C@H]1CC[C@H](C(=O)O)CC1)N(C)c1nc2c(c(N[C@@H](CN3CCCCC3)c3cnn(C)c3)n1)CN(c1cccc(F)c1)CC2 [Compound 157, (1R,4r)-4-((R)-1-((6-(3-fluorophenyl)-4-(((R)-1-(1-methyl-1H-pyrazol-4-yl)-2-(piperidin-1-yl)ethyl)amino)-5,6,7,8-tetrahydropyrido[4,3-d]pyrimidin-2-yl)(methyl)amino)propyl)cyclohexane-1-carboxylic acid] | 999 | 105.667 % of ANP | 1430 | 99.549 % of ANP
